The values that follow are results of earlier work, collected in patent US8759352B2, “1-(4-ureidobenzoyl)piperazine derivatives” (Merck Sharp & Dohme B.V., priority 2008, dated 2014).

Data set [1] relates to vascular smooth muscle cell. The conditions noted are these: in vitro and in vivo; Blaschke et al. 2004.
In another data set the test system is tumours. The conditions noted are these: animal model of prostate cancer; Chuu et al. 2006.
A further data set deals with β-amyloid. The conditions noted are these: Riddell et al. 2007.
In the next data set the test system is neointima formation. The conditions noted are these: in vitro and in vivo; Blaschke et al. 2004.

Molecules are shown by their SMILES.

`O=S(=O)(c1ccccc1)N(CC(F)(F)F)c1ccc(C(O)(C(F)(F)F)C(F)(F)F)cc1` [Example T0901317]: in data set [1], the “vascular smooth muscle cell proliferation” value was “inhibit”. The progression of tumours entry in the data set on tumours was “delayed progression of tumours”. Also, in the data set on β-amyloid, the “deposition of β-amyloid” value is “lower deposition of β-amyloid” and the memory entry was “improve memory”. Also, in the data set on neointima formation, the “neointima formation following balloon injury” value was “inhibit”.
